From patent US20240368174A1, “Antiviral Heterocyclic Compounds” (Enanta Pharmaceuticals, Inc., priority 2023, published 2024)

Experiments:
[1] = test system: HMPV clinical isolate A2 strain TN 94-49; test: HMPV antiviral assay, Method 2 (LLC-MK2 cells with CP-100-356, ATP-Lite); type: cell-based; conditions: human metapneumovirus; hMPV A2 TN/94-49, LLC-MK2 cells with CP-100-356, Method 2
How it was run: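 EC50 comes from a four-parameter fit of percent cell viability (ATP-Lite, normalized to virus-only and cell-only wells) after 7 days at 37 °C. Infection used HMPV A2 TN 94-49 at MOI 0.16 in LLC-MK2 cells, with 2 μM P-gp inhibitor CP-100-356 and 2 μg/mL TPCK-trypsin final; dose range 200 nM top, 2.5-fold, 10 points, duplicate.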

[2] = test system: HMPV clinical isolate A2 strain TN 94-49; test: HMPV antiviral assay, Method 1 (LLC-MK2 cells, ATP-Lite); type: cell-based; conditions: human metapneumovirus, hMPV A2 TN/94-49, LLC-MK2 cells
Experimental: In vitro HMPV antiviral activity was evaluated using the clinical isolate A2 strain TN 94-49 (obtained from Dr. John Williams, Vanderbilt University, Tennessee) and LLC-MK2 cells (ATCC #CCL-7), an immortalized kidney epithelial cell line from Macaca mulatta. Compounds were resuspended in dimethyl sulfoxide (DMSO) at 10 mM, serially diluted and added to a 384-well source plate. Subsequently, the compounds were diluted and transferred onto 384-well assay plates using the Echo-650 automated liquid handling system (Beckman Coulter, Indiana). The test compounds were assessed in duplicate at a top concentration of 2 μM followed by 2.5-fold serial dilutions to give a total of 10 concentration points. DMSO control wells were also included on the assay plates and were either infected or not, acting as positive and negative controls. A2 TN 94-49 virus infections were performed in-suspension with LLC-MK2 cells. The cells were washed twice with PBS and removed from the cell-culture flask with 0.25% trypsin-EDTA (Thermo Fisher Scientific, MA). The trypsin-EDTA was inactivated by resuspending in 2% fetal bovine serum (FBS) and OptiMEM (ThermoFisher Scientific, MA) containing 1% penicillin-streptomycin. Cells were pelleted by centrifuging for 5 minutes at 800 rpm, the supernatant was removed, and cells were re-suspended and washed in PBS plus 100 μg/mL CaCl2). This step was performed twice. Cells were then re-suspended in serum-free (SF)-OptiMEM containing 4 μg/mL TPCK-Trypsin (Sigma Aldrich, MO), 1% penicillin-streptomycin (ThermoFisher Scientific, MA) and 100 μg/mL CaCl2). Cells were counted and seeded at a density of 5,000 cells/well, 12.5 μL/well. Virus infections were done at a multiplicity of infection (MOI) of 0.005 with 12.5 μL added per well. Virus infections were performed in infection media which contained SF-OptiMEM, 100 μg/mL CaCl2) and 1% penicillin-streptomycin. HMPV viral stocks are suspended in infection media+5% glycerol, thus an equal volume of infection media+5% glycerol was added to uninfected wells to equalize the final % glycerol across all wells of the assay plate. The final concentration of TPCK-trypsin was 2 μg/mL. The assay plates were incubated at 37° C., 5% CO2 for 7 days. After 7 days incubation, 12.5 μL of ATP-Lite (PerkinElmer, MA) was added to each well and the raw luminescence values were determined using the Envision 2104 (Perkin Elmer, MA). The average of the raw luminescence values for the cells and virus only positive control wells was subtracted from all conditions tested and the percent cell health was determined by dividing these values by the average of the cells only negative control wells. EC50 values were then calculated by non-linear regression using a four-parameter curve logistic equation. The curve fit model employed was XLFit Dose Response One Site Model 200: y=(A+(B/(1+((x/C)^D)))), where A is the minimum y value, B is the maximum y value, C is the log EC50 value, and D is the slope factor.

| Structure (SMILES) | EC50 [1] | EC50 [2] |
| --- | --- | --- |
| COc1cc(C(=O)NCC(O)(c2cc3c(c(-c4cc(Cl)c(F)cc4F)n2)OC[C@]3(C)C(N)=O)c2cc(C(F)F)cs2)cc2cn(C3CC3)nc12 (stereo partly shown) [Example 468] | < 200 nM | > 500 nM |
| COc1cc(C(=O)NC[C@](O)(c2cc3c(c(-c4cc(Cl)c(Cl)cc4Cl)n2)OC[C@]3(C)C(N)=O)C2CC2)cc2cn(C3CC3)nc12 [Example 62] | – | > 500 nM |
| COc1cc(C(=O)NC[C@](O)(c2cc3c(c(-c4ccc(C(F)(F)F)c(C)c4)n2)OC[C@]3(C)C(N)=O)C2CC2)cc2cn(C3CC3)nc12 [Example 55] | – | > 500 nM |
| COc1cc(C(=O)NC[C@](O)(c2cc3c(c(-c4cc(F)c(F)cc4F)n2)OC[C@]3(C)C(N)=O)C2(O)CC2)cc2cn(C3CC3)nc12 [Example 215] | – | > 500 nM |
| COc1cc(C(=O)NC[C@@](O)(c2cc3c(c(-c4cc(Cl)c(F)cc4F)n2)OC[C@]3(C)C(N)=O)c2cc(C)cs2)cc2cn(C3CC3)nc12 [Example 466] | – | > 500 nM |
| [2H]C([2H])([2H])c1cc2cc(C(=O)NC[C@](O)(c3cc4c(c(-c5ccc(F)c(Cl)c5)n3)OC[C@]4(C)C(N)=O)C(F)(F)F)cc(OC)c2nc1C [Example 20] | – | > 500 nM |
| COc1cc(C(=O)NC[C@](O)(c2cc3c(c(-c4cc(Cl)c(F)cc4F)n2)OC[C@]3(C)C(N)=O)C2CC2)cn2cc(C(F)F)nc12 [Example 78] | – | > 500 nM |
| COc1cc(C(=O)NC[C@](O)(c2cc3c(c(-c4cc(F)c(F)cc4F)n2)OC[C@]3(C)C(N)=O)C2CC(F)(F)C2)cc2cn(C3CC3)nc12 [Example 31] | – | < 500 nM |
| COc1ccc([C@](O)(CNC(=O)c2cc(OC)c3nn(C(F)F)cc3c2)c2cc3c(c(-c4cc(Cl)c(F)cc4F)n2)OC[C@]3(C)C(N)=O)cc1 [Example 167] | – | < 500 nM |
| [2H]C([2H])([2H])c1nc2c(OC)cc(C(=O)NC[C@@](O)(c3ccccc3)c3cc4c(c(-c5ccc(F)c(Cl)c5Cl)n3)OC[C@]4(C)C(N)=O)cc2s1 [Example 273] | – | < 500 nM |
| C[C@]1(C(N)=O)COc2c1cc([C@@](O)(CNC(=O)c1cc(OC(F)F)c3nn(C4CC4)cc3c1)C1CC1)nc2-c1cc(F)c(F)cc1F [Example 6] | – | < 500 nM |
| COc1cc(C(=O)NC[C@@](O)(c2ccc(F)cc2)c2cc3c(c(-c4ccc(F)c(Cl)c4Cl)n2)OC[C@]3(C)C(N)=O)cc2cc(Cl)c(C)nc12 [Example 44] | – | < 500 nM |
| COc1cc(F)ccc1-c1nc([C@@](O)(CNC(=O)c2cc(OC)c3nn(C4CC4)cc3c2)C2CC2)cc2c1OC[C@]2(C)C(N)=O [Example 67] | – | > 500 nM |
| C[C@]1(C(N)=O)COc2c1cc([C@@](O)(CNC(=O)c1ccc3nc(C(F)(F)F)oc3c1)c1ccccc1)nc2-c1cc(Cl)c(F)cc1F [Example 82] | – | > 500 nM |
| COc1cc(C(=O)NC[C@](O)(c2cc3c(c(-c4cccc(S(F)(F)(F)(F)F)c4)n2)OC[C@]3(C)C(N)=O)C(F)(F)F)cc2cn(C3CC3)nc12 [Example 54] | – | > 500 nM |
| COc1cc(C(=O)NC[C@@](O)(c2ccccc2)c2cc3c(c(-c4cc(Cl)c(F)cc4F)n2)OC[C@]3(C)C(=O)NC2CC2)cc2cn(C3CC3)nc12 [Example 143] | – | < 500 nM |
| [2H]C([2H])([2H])c1nc2c(OC)cc(C(=O)NC[C@@](O)(c3ccsc3)c3cc4c(c(-c5cc(Cl)c(F)cc5F)n3)OC[C@]4(C)C(N)=O)cc2s1 [Example 176] | – | < 500 nM |

The next lines start with the values.

| EC50 [1] | EC50 [2] | Structure (SMILES) |
| --- | --- | --- |
| < 200 nM | < 500 nM | COc1cc(C(=O)NCC(O)(c2cc3c(c(-c4cc(Cl)c(F)cc4F)n2)OC[C@]3(C)C(N)=O)c2ccc(C)s2)cc2cn(C3CC3)nc12 (stereo partly shown) [Example 470] |
| < 200 nM | < 500 nM | COc1cc(C(=O)NC[C@@](O)(c2ccccc2)c2cc3c(c(-c4cc(C(F)F)c(F)cc4F)n2)OC[C@]3(C)C(N)=O)cc2oc(C3CC3)nc12 [Example 299] |
| < 200 nM | < 500 nM | COc1cc(C(=O)NC[C@@](O)(c2ccccc2)c2cc3c(c(-c4ccc(F)c(Cl)c4Cl)n2)OC[C@]3(C)C(N)=O)cc2oc(C)nc12 [Example 277] |
| < 200 nM | < 500 nM | COc1cc(C(=O)NC[C@@](O)(c2cccc(F)c2)c2cc3c(c(-c4cc(C(F)(F)F)c(F)cc4F)n2)OC[C@]3(C)C(N)=O)cc2cn(C3(F)CC3)nc12 [Example 296] |
| < 200 nM | < 500 nM | Cc1nc2c(OC3CC3)cc(C(=O)NC[C@@](O)(c3ccccc3)c3cc4c(c(-c5ccc(F)c(Cl)c5Cl)n3)OC[C@]4(C)C(N)=O)cc2o1 [Example 271] |
| < 200 nM | < 500 nM | COc1cc(C(=O)NC[C@@](O)(c2ccc(F)cc2)c2cc3c(c(-c4ccc(F)c(Cl)c4Cl)n2)OC[C@]3(C)C(N)=O)cc2cn(C3(F)CC3)nc12 [Example 43] |
| < 200 nM | < 500 nM | COc1cc(C(=O)NC[C@@](O)(c2cccc(F)c2)c2cc3c(c(-c4cc(Cl)c(F)cc4F)n2)OC[C@]3(C)C(N)=O)cc2cc(C3CC3)nn12 [Example 133] |
| < 200 nM | < 500 nM | COc1cccc([C@](O)(CNC(=O)c2cc(OC)c3nn(C4CC4)cc3c2)c2cc3c(c(-c4cc(Cl)c(F)cc4F)n2)OC[C@]3(C)C(N)=O)c1 [Example 160] |
| < 200 nM | < 500 nM | COc1cc(C(=O)NC[C@@](O)(c2ccccc2)c2cc3c(c(-c4ccc(F)c(Cl)c4Cl)n2)OC[C@]3(C)C(N)=O)cc2cc(C3CC3)nnc12 [Example 290] |
| – | < 500 nM | COc1cc(C(=O)NC[C@@](O)(c2ccccc2)c2cc3c(c(-c4ccc5c(c4Cl)OC(F)(F)O5)n2)OC[C@]3(C)C(N)=O)cc2cn(C3(F)CC3)nc12 [Example 255] |
| – | < 500 nM | COc1cc(C(=O)NC[C@@](O)(c2ccccc2)c2cc3c(c(-c4cc(Cl)c(F)cc4F)n2)OC[C@]3(C)C(N)=O)cc2cn(C(F)F)nc12 [Example 156] |
| – | < 500 nM | COc1cc(C(=O)NC[C@@](O)(c2ccccc2)c2cc3c(c(-c4cc(Cl)c(F)cc4F)n2)OC[C@]3(C)C(N)=O)cc2cc(Cl)c(C)nc12 [Example 159] |
| – | < 500 nM | COc1cc(C(=O)NC[C@@](O)(c2ccc(F)cc2)c2cc3c(c(-c4cc(Cl)c(F)cc4F)n2)OC[C@]3(C)C(N)=O)cc2cc(Cl)c(C)nc12 [Example 17] |
| – | < 500 nM | [2H]c1nc2c(OC(F)F)cc(C(=O)NC[C@@](O)(c3ccccc3)c3cc4c(c(-c5cc(Cl)c(F)cc5F)n3)OC[C@]4(C)C(N)=O)cc2cc1C([2H])([2H])[2H] [Example 217] |
| – | < 500 nM | [2H]C([2H])([2H])c1nc2c(OC)cc(C(=O)NC[C@@](O)(c3ccc(OC)cc3)c3cc4c(c(-c5cc(Cl)c(F)cc5F)n3)OC[C@]4(C)C(N)=O)cc2s1 [Example 168] |
| – | < 500 nM | COc1cc(C(=O)NC[C@@](O)(c2cccc(F)c2)c2cc3c(c(-c4cc(Cl)c(F)cc4F)n2)OC[C@]3(C)C(N)=O)cc2cn(C(F)F)nc12 [Example 134] |
| – | < 500 nM | C[C@]1(C(N)=O)COc2c1cc([C@@](O)(CNC(=O)c1cc(OC3CC3)c3nn(C4CC4)cc3c1)C1CC1)nc2-c1cc(Cl)c(F)cc1F [Example 2] |
| – | < 500 nM | COc1cc(C(=O)NC[C@](O)(c2cc3c(c(-c4cc(Cl)c(F)cc4F)n2)OC[C@]3(C)C(N)=O)c2ccccc2F)cc2cn(C(F)F)nc12 [Example 138] |
| – | < 500 nM | COc1cc(C(=O)NC[C@@](O)(c2cccc(F)c2)c2cc3c(c(-c4ccc(F)c(Cl)c4Cl)n2)OC[C@]3(C)C(N)=O)cc2oc(C)nc12 [Example 279] |
| – | < 500 nM | CNC(=O)[C@@]1(C)COc2c1cc([C@@](O)(CNC(=O)c1cc(OC)c3nn(C4CC4)cc3c1)c1ccccc1)nc2-c1cc(Cl)c(F)cc1F [Example 141] |
| – | < 500 nM | COc1cc(C(=O)NC[C@@](O)(c2cccc(F)c2)c2cc3c(c(-c4ccc5c(c4Cl)OC(F)(F)O5)n2)OC[C@]3(C)C(N)=O)cc2cn(C3CC3)nc12 [Example 274] |
| – | < 500 nM | [2H]C([2H])([2H])c1cc2cc(C(=O)NC[C@](O)(c3cc4c(c(-c5cc(F)c(F)cc5F)n3)OC[C@]4(C)C(N)=O)C3CC3)cc(OC)c2nc1C([2H])([2H])[2H] [Example 28] |
